Measured values reported in patent publication US6465205B2, “In vitro cell culture device including cartilage and methods of using the same” (The Research Foundation of State University of New York, priority 1999, dated 2002).

Legend:
[1] = test system: respiratory epithelial cells; assay: Proliferation of respiratory epithelial cells (cell number by hemocytometer count); type: cell-based, porcine
Procedure: Porcine tracheal tissue obtained at necropsy was cleaned of debris, rinsed thoroughly with PBS, and epithelium and submucosa removed and soaked overnight at 4° C. in MEM containing antibiotics/antimycotics. Dissociated respiratory epithelial cells were isolated using elastase digestion as described by Hicks et al. (“Rapid Isolation of Upper Respiratory Epithelial Cells,” Mol. Biol. Cell., 5(Suppl.): 118a (Abstract), (1995); Hicks et al., “Isolation and Characterization of Basal Cells from Human Upper Respiratory Epithelium,” Exp. Cell Res. 237:357-363 (1997), which are hereby incorporated by reference) and plated on top of type I collagen-coated 35 mm petri dishes at 0.2×10^6 cells/cm^2 in serum free medium. In selected experiments, cells were cultured in Biocoat type I collagen-coated 24 well plates. Medium was collected for gelatin zymography as described above.
The proliferative effects of CCM on REC were assessed by addition of CCM diluted 1:1 with SFM. REC cultures grown on type I collagen were fed 0.1 ml CCM or control SFM daily, and media were changed completely every 3 days. […] After incubation at 37° C. for 20 minutes, REC were again washed with PBS/10% FBS, then resuspended in PBS and an aliquot counted using Trypan blue dye exclusion to determine viability and cell number. […]

[2] = test system: matrix metalloproteinases (MMP-2, MMP-9) in chondrocyte-conditioned medium; assay: Gelatin zymography for MMP activity; type: biochemical, bovine or porcine
Procedure: Cell viability and number were determined by Trypan blue staining and counting using a hemocytometer. Chondrocytes were plated on collagen inserts (Costar Transwell, VWR, Pittsburgh, Pa.) at 20-40×10^6 cells/well in DMEM/F12 containing antibiotics, 10% FBS, and 50 μg/ml ascorbic acid (prepared fresh and added every other day). After the chondrocytes had formed a layer of extracellular matrix (approximately 2 weeks), the medium was switched to serum free (DMEM/F12 with antibiotics, 5 μg/ml insulin, 15 μg/ml bovine pituitary extract, 10 μg/ml epidermal growth factor, 5 μg/ml transferrin, 1 μM hydrocortisone, 10^−8 M retinol, and ascorbic acid). Cultures were fed from the bottom every 3-4 days. Medium was collected from chondrocyte cultures on days 3, 5, 7, 10, and 14 after switching from 10% FBS-containing medium to SFM. […]
CCM or SFM, obtained as described above, was mixed with 2× sample buffer (20 mM DTT, 4% SDS, 50 mM Tris, 20% glycine, 0.002% Bromophenol blue), loaded without prior heating, and electrophoresed under non-reducing conditions at 4° C. for approximately 4 hours under constant voltage. […] Gels were rinsed twice with distilled water then stained for 1 hour in Coomassie blue stain, followed by destaining in water/methanol/acetic acid (6:3.5:0.5) until clear areas of enzyme activity were detected against a blue background. […]

| SMILES | Effect on REC proliferation ([1]; 5 nM, REC cultured with or without CCM, cell number after 7 days) | Restoration of REC proliferation to control levels ([1]; concentrations of 10 and 50 W, in presence of CCM (FIG. 8)) | Block of MMP (marker protein) activity in pooled CCM by gelatin zymography ([2]; 5 nM, medium of day 3 and day 7 (FIGS. 7A-B)) | MMP enzyme activity on zymogram developed in presence of chelator ([2]; developing buffer containing 20 mM EDTA (FIG. 5B)) |
| --- | --- | --- | --- | --- |
| CNC(=O)[C@H](Cc1c[nH]c2ccccc12)NC(=O)[C@@H](CC(=O)NO)CC(C)C [GM6001] | nor was proliferation positively affected | proliferation was not restored to control levels | did not block marker protein activity | – |
| O=C(O)CN(CCN(CC(=O)O)CC(=O)O)CC(=O)O [EDTA, ethylenediamine tetraacetic acid] | – | – | – | enzyme activity was abolished |
